Tests used:
A549 human NSCLC cells = experiment: A549 NSCLC xenograft model; settings: for Tumour size: day 42 after tumour implantation, RT 4 Gy days 8, 9, 15, 16, ZD6126 150 mg/kg i.p. days 10, 17, ZD1839 2.5 mg per day p.o. days 7-11 and 14-18
Experimental: A549 NSCLC Xenograft Model
A human non-small cell lung cancer (NSCLC) xenograft model was used. Athymic nude mice were injected subcutaneously (s.c.) with A549 human NSCLC cells. Treatment began after 7 days when tumours were established (tumour volume=100-300 mm^3). […] Animals in all groups were sacrificed on day 42 after tumour cell implantation, when the control tumours reached approximately 2.0 cm^3.

human LoVo tumour cells = experiment: LoVo tumour model; type: in vivo, athymic nude mice; settings: s.c. LoVo xenograft; ZD6126 200 mg/kg i.p. day 0; ZD1839 200 mg/kg/day p.o. days 0-13; 8 mice per group
Experimental: Athymic nude mice were implanted subcutaneously with 1.5×10^7 human LoVo tumour cells (obtained from European Collection of Cell Cultures, ECACC, CAMR, Salisbury, Wiltshire, SP4 0JG, UK; Cat. no. CCL 229) and tumours allowed to grow until they were approximately 9 mm in diameter. Groups of 8 tumour bearing mice were then treated as follows: • Control animals were dosed with PBSA 0.1 ml/10 g intraperitoneally (i.p.) single bolus on day 0 then about 2 h hours later 0.1% Tween 80 0.1 ml/10 g orally (p.o.) on day 0, followed by 0.1% Tween 80 0.1 ml/10 g p.o. once daily on days 1-13; • ZD6126 alone was dosed 200 mg/kg i.p. on day 0; • ZD1839 alone was dosed 200 mg/kg/day p.o. on days 0-13; and
(in the combination arm) ZD6126 200 mg/kg i.p. on day 0 then about 2 hours later ZD1839 200 mg/kg p.o. dosed on day 0, followed by ZD1839 200 mg/kg p.o. once daily on days 1-13. Tumour growth was measured twice weekly from calliper measurements of tumour diameter and the time taken for tumours to double in size compared using the Mann-Whitney U statistic.

tumour vasculature = settings: reported in Proc. Am Assoc. Cancer Res. 2000; 41: 329; cited from earlier work

| SMILES | Tumour size (A549 human NSCLC cells) [cm^3 S.D.] | Growth delay in days for tumours to double in size (human LoVo tumour cells) | inhibition of tumour growth (in words) (A549 human NSCLC cells; A549 xenograft, compared with control animals or single agents) | effect on tumour vasculature (in words) (tumour vasculature) |
| --- | --- | --- | --- | --- |
| COc1cc2ncnc(Nc3ccc(F)c(Cl)c3)c2cc1OCCCN1CCOCC1 [ZD1839, N-(3-chloro-4-fluorophenyl)-7-methoxy-6-(3-morpholinopropoxy)quinazolin-4-amine, reference compound] | 1.41 ± 0.08 | 8.3 days; p < 0.01 | – | – |
| COc1cc2c(c(OC)c1OC)-c1ccc(OP(=O)(O)O)cc1[C@@H](NC(C)=O)CC2 [ZD6126, N-acetylcolchinol-O-phosphate] | 1.17 ± 0.10 | 3.6 days; p < 0.05 | marked inhibition of tumour growth | selectively disrupts tumour vasculature leading to vessel occlusion and extensive tumour necrosis |

Reference: patent publication US20050215530A1, “Combination therapy for the treatment of cancer” (priority 2002, published 2005)
